Experimental data from PubChem BioAssay (NCI).
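Five concentrations, 48 hours, 96-well plates. The concentration for 50% growth inhibition is given as GI50. TGI denotes the concentration required for complete inhibition of growth.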

How the values were obtained:
Assay in all cases: inhibition of tumour cell growth, NCI panel, 48 h
[1] = system: SF-539 CNS
[2] = system: HCT-15 colon
[3] = system: IGROV1 ovarian
[4] = system: SK-MEL-2 melanoma
[5] = system: HCT-116 colon
[6] = system: OVCAR-5 ovarian
[7] = system: K-562 leukemia
[8] = system: SNB-75 CNS
[9] = system: UACC-62 melanoma
[10] = system: M14 melanoma
[11] = system: HL-60(TB) leukemia
[12] = system: SN12C renal
[13] = system: HT29 colon
[14] = system: RPMI-8226 leukemia
[15] = system: MCF7 breast
[16] = system: SR leukemia

CCn1c2c(c3ccccc31)C(c1ccccc1)CC1C(=O)N(c3ccccc3)C(=O)C21 (configuration not stated)
TGI [1]: > 100 µM | TGI [2]: > 100 µM | TGI [3]: > 100 µM | TGI [4]: > 100 µM | TGI [5]: > 100 µM | TGI [6]: > 100 µM | TGI [7]: > 100 µM | TGI [8]: 59.6 µM | TGI [9]: > 100 µM | TGI [10]: > 100 µM | TGI [11]: > 100 µM | TGI [12]: > 100 µM

O=C(Nc1sccc1S(=O)(=O)c1ccccc1)c1ccccc1
TGI [13]: > 100 µM | TGI [1]: > 100 µM | TGI [2]: > 100 µM | TGI [3]: > 100 µM | TGI [4]: > 100 µM | TGI [5]: > 100 µM | TGI [14]: > 100 µM | TGI [6]: > 100 µM | TGI [7]: > 19.9 µM | TGI [8]: > 100 µM | TGI [9]: > 100 µM | TGI [10]: > 100 µM | TGI [15]: > 100 µM | TGI [12]: > 100 µM

CC1(C)CC(=O)c2c(nc3c(ccc4ccccc43)c2-c2ccc(NC(=O)CCCCC(=O)Nc3ccc(-c4c5c(nc6c4ccc4ccccc46)CC(C)(C)CC5=O)cc3)cc2)C1
TGI [13]: 62.3 µM | TGI [1]: 46.6 µM | TGI [2]: 50.9 µM | TGI [3]: 37.5 µM | TGI [4]: 92.6 µM | TGI [5]: 74.6 µM | TGI [14]: 71.4 µM | TGI [6]: > 100 µM | TGI [7]: > 100 µM | TGI [8]: 53.1 µM | TGI [10]: > 100 µM | TGI [11]: 77.6 µM | TGI [15]: > 100 µM | TGI [12]: 92.8 µM

O=C(OC/C=C1C=C(OC(=O)c2ccccc2)/C(=N/N(C(=O)c2ccccc2)c2ccccc2)O\1)c1ccccc1
GI50 [13]: 19.8 µM | TGI [13]: 41.5 µM | TGI [2]: 19.7 µM | TGI [3]: 13.3 µM | TGI [4]: 27 µM | TGI [5]: 18.3 µM | TGI [14]: 7.24 µM | GI50 [6]: 15.9 µM | TGI [6]: 29.5 µM | TGI [7]: 11.8 µM | GI50 [8]: 18.5 µM | TGI [8]: 37.9 µM | TGI [10]: 18.7 µM | GI50 [11]: < 0.01 µM | TGI [11]: 2.29 µM | TGI [12]: 22.7 µM

Cc1ccc2oc3c(c(Br)c(Br)n3C)c(=O)c2c1
TGI [13]: > 100 µM | TGI [1]: 37.3 µM | TGI [2]: > 100 µM | TGI [3]: > 100 µM | TGI [4]: 89 µM | TGI [5]: 33.9 µM | TGI [14]: > 100 µM | TGI [6]: 99.7 µM | TGI [7]: > 100 µM | TGI [9]: 52.3 µM | TGI [10]: > 100 µM | TGI [11]: > 100 µM | TGI [15]: > 100 µM | TGI [12]: 47 µM

NC1Cc2ccccc2OC1=O (configuration not stated)
TGI [13]: > 100 µM | TGI [1]: > 100 µM | TGI [2]: > 100 µM | TGI [3]: > 100 µM | TGI [4]: > 100 µM | TGI [14]: > 100 µM | TGI [6]: > 100 µM | TGI [7]: > 100 µM | TGI [8]: > 100 µM | TGI [9]: > 100 µM | TGI [16]: > 100 µM | TGI [10]: > 100 µM | TGI [15]: > 100 µM | TGI [12]: > 100 µM

c1ccc2c(c1)ccn1ccc3c4ccccc4nc-3c21
TGI [13]: 1.58 µM | TGI [1]: 1.48 µM | TGI [3]: 2.8 µM | TGI [4]: 2.54 µM | TGI [14]: 0.799 µM | TGI [6]: 2.36 µM | TGI [7]: 0.567 µM | TGI [8]: 2.15 µM | TGI [9]: 3.81 µM | TGI [10]: 1.51 µM | TGI [11]: 1.36 µM | TGI [15]: 1.11 µM | TGI [12]: 2.1 µM

NCCCCCCNCc1cccc2ccccc12
TGI [13]: > 100 µM | TGI [1]: > 100 µM | TGI [2]: > 100 µM | TGI [3]: > 100 µM | TGI [4]: > 100 µM | TGI [5]: > 100 µM | TGI [14]: > 100 µM | TGI [6]: > 100 µM | TGI [7]: 51.1 µM | TGI [8]: > 100 µM | TGI [9]: > 100 µM | TGI [16]: > 100 µM | TGI [10]: 34.3 µM | TGI [11]: > 100 µM | TGI [12]: > 100 µM
